In data set [1] the test system is canine-colonoid-derived monolayers. As to the kind of experiment: Bidirectional transport (Papp) across canine-colonoid-derived monolayers. Type of data set: in vitro ADME, dog. To be noted: for Papp A→B / Papp B→A: Dog colonoid, read-out: Papp × 10^−6; for Papp B→A: BL→AP pH 7.4/7.4, individual wells.
Procedure: (§1) After seven days of culture (Figure 3A), the 3D colonoids were harvested from the Matrigel® using the Corning™ cell recovery solution. Matrigel® plugs were dissociated by repeated pipetting after adding 500 μL of pre-chilled cell recovery solution into each well, and the plate was incubated for 30 min at 4 °C to dissolve the Matrigel®. The mixture was then transferred to a 15 mL tube and centrifuged at 100× g for 5 min at 4 °C. The organoid pellet was resuspended in 1 mL TrypLE Express and incubated at 37 °C for 10 min with shaking. To stop the TrypLE action, 6 mL of DMEM/F12 was added to the mixture before centrifugation at 100× g for 5 min at 4 °C. The supernatant was removed, and the pellet was resuspended with CMGF+ media. The harvested colonoid cell suspension was filtered through a sterile cell strainer (40 µm nylon mesh, Thermo Fisher Scientific) to obtain a single-cell suspension. The viability of dissociated cells was assessed by the trypan blue exclusion test [58, 59], and cells were counted manually using a hemocytometer (Hausser Scientific, Horsham, PA, USA). The Transwell™ inserts were pre-coated with Matrigel® (100 μg/mL; Corning®) and rat tail collagen I (30 μg/mL; Fisher Scientific) to promote adhesion, growth, and differentiation in CMGF+ media at 37 °C for 1 h. Dissociated colonoid cells (Passages #15–20) were seeded at a density of 100,000 cells/cm^2 in pre-coated inserts and allowed to grow and differentiate in the presence of CMGF+ media for 10 to 12 days before the experiments (Figure 3B). The CMGF+ culture medium was changed every other day. The structural integrity of the cell monolayer was monitored every other day for up to two weeks by phase-contrast microscopy.
(§2) All transport experiments were conducted at room temperature following the conditions outlined in earlier reports during sampling and incubation [66, 67, 68]. The culture media were aspirated from both AP (0.2 mL) and BL (0.7 mL) chambers. For both the canine colonoid and the Caco-2 monolayer, the BL chambers with HBSS buffer at pH 7.4 (0.7 mL) and the AP chambers with appropriate HBSS buffer at pH 6.8 or 7.4 (0.2 mL) (canine) or pH 6.8 (0.2 mL) (Caco-2 cells) were rinsed and equilibrated at room temperature for 30 min. Two to three wells per drug/pH/direction were used for data generation.
(§3) After Caco-2 and canine colonoid monolayers were equilibrated in the transport buffer for 30 min, the buffer was aspirated from the AP (0.2 mL) and BL (0.7 mL) chambers. The media of the AP chamber were replaced with 0.2 mL of the drug solution prepared in an appropriate transport buffer. HBSS buffer with pH 7.4 was added to the BL chambers. At pre-defined time points (15, 30, 45, 60, 90, and 120 min), samples of 100 µL buffer were collected from the receiver chamber (BL) and replaced with the same volume (i.e., 100 µL) of transport buffer at pH 7.4. For the AP side, drug concentrations of the donor solution were measured prior to introduction into the well and at the end of the study (120 min). In so doing, no buffer replacement was needed. All study samples were labeled and stored at −80 °C until further analysis.
(§4) The same procedures described above for studying AP→BL permeability were followed when studying BL→AP, with the only difference being that the donor chamber was now the BL side and the receiver chamber was now the AP side. At pre-determined time intervals (15, 30, 45, 60, 90, and 120 min), 100 µL of buffer was removed from the receiver chamber (AP) and replaced with the same volume (i.e., 100 µL) of transport buffer with the specified pH. The collected samples were stored at −80 °C until further analysis by mass spectrometry (details below).
For data set [2] the following is noted: low permeability, high solubility; cited from earlier work.
For data set [3], the system named is P-gp. To be noted: cited from earlier work.
Details of data set [4]: method as in earlier work. The following applies: ref 65 (PubChem), cited from earlier work.
Data set [5] can be described thus: Bidirectional transport (Papp) across Caco-2 cell monolayers. The following applies: human; for Papp A→B at 120 min, 0.04 mg/mL: Caco-2, pH 6.8, 0.04 mg/mL (58.4 μM); for Papp A→B at 120 min, 0.4 mg/mL: Caco-2, pH 6.8, 0.4 mg/mL (584.1 μM); for Papp B→A at 120 min, 0.04 mg/mL: Caco-2, pH 7.4, 0.04 mg/mL (58.4 μM); for Papp B→A at 120 min, 0.4 mg/mL: Caco-2, pH 7.4, 0.4 mg/mL (584.1 μM); for Papp A→B at 120 min, 1 mg/mL: Caco-2, pH 6.8, 1 mg/mL (3380 μM); for Papp B→A at 120 min, 1 mg/mL: Caco-2, pH 7.4, 1 mg/mL (3380 μM). Type of data set: in vitro ADME, human. For orientation: Caco-2 cells form a polarised layer with tight junctions and transporters.
Procedure: (§5) The harvested Caco-2 cell suspension was then filtered through a sterile cell strainer (40 µm nylon mesh, Thermo Fisher Scientific) to obtain a single-cell suspension. Caco-2 cell viability and concentration were determined by a trypan blue exclusion test [57, 58]. Single Caco-2 cells (passages 50–55) were seeded at a density of 75,000 cells/cm^2 in the apical chamber of the insert and cultured in CCCM media. The culture medium in both apical and basolateral chambers was changed every other day. In the transport studies, the monolayers were utilized 18 to 20 days after plating.
as §2, §3, §4
(§6) The uncorrected Papp estimates for the three drugs of interest (Papp-uncorrected, cm/s) were calculated as follows (Equation (2)) [7]: (2) Papp-uncorrected =VR/(A×C0)×dC/dt where VR is the volume in the receiver chamber (mL), A is the surface area of the filter ( 0.33 cm^2 ), C0 is the initial drug concentration (µM) in the donor chamber, and dC/dt is the maximum slope of the line defining the cumulative drug concentration (mg/mL) vs. time (min) in the receiver compartment. […] The estimated concentrations in the receiver compartment were corrected for drug removed during prior samples.
(§7) These Papp value estimates were further corrected for the percent recovery (Rec (%)) in each well [71, 72] as follows (Equation (3)): (3) Rec (%) =mg donor hr 2+total mg receiver hr 2/mg drug introduced into the donor compartment at hr 0
(§8) The corrected Papp estimates reported herein were, therefore, calculated as follows (Equation (4)):(4) Papp= Papp−uncorrected /Rec (%)

Data set [6] concerns Caco-2 cell monolayers. Described as above. Type of data set: in vitro ADME, human.
Procedure: as §5, §2, §3, §4, §6, §7, §8
The nature of data set [7]: Bidirectional transport (Papp) across canine-colonoid-derived monolayers. Type of data set: in vitro ADME, dog. The following applies: dog, Dog colonoid.
Procedure: as §1, §2, §3, §4
Where [8] appears, read: Human Caco-2, AP→BL pH 6.8/7.4, N = 2, read-out: Papp × 10^−6 Avg.
Where [9] appears, read: Human Caco-2, AP→BL pH 6.8/7.4, individual wells, read-out: Papp × 10^−6.
[10] abbreviates: Human Caco-2, BL→AP pH 7.4/7.4, N = 2, read-out: Papp × 10^−6 Avg.
Where [11] appears, read: Human Caco-2, BL→AP pH 7.4/7.4, individual wells, read-out: Papp × 10^−6.

Like-named read-outs stand apart in the source and are kept apart here. Bounds are passed on as bounds.

Take `CC(C)NCC(O)COc1ccc(CC(N)=O)cc1` (centres unmarked) [Atenolol]: in data set [1] (2.0 mg/mL, canine colonoids, irrespective of pH or direction (AP→BL or BL→AP)), the “drug in the receiver compartment” value is on record as “not detectable”. For the same molecule, the “BCS Class” value in data set [2] is recorded as “Class III”.
What is called Log P is the decadic logarithm of the partition coefficient of the neutral form, usually between octanol and water. In the case of `COCCc1ccc(OCC(O)CNC(C)C)cc1` (centres unmarked) [Metoprolol], the P-gp substrate status entry in data set [3] is recorded as “not a substrate for P-gp transport”. Moreover, in data set [4] (25 °C), the “Aqueous Solubility (25 °C)” value was over 1000 mg/mL. The “Log P” value in data set [4] is on record as 2.15. Also, the Papp A→B at 120 min, 0.04 mg/mL in data set [5] (setting [8]) turned out to be 15.3 ×10⁻⁶ cm/s; in data set [5] (setting [9]), 17.5 ×10⁻⁶ cm/s; in data set [7] (pH 6.8, 0.04 mg/mL (58.4 μM), AP→BL pH 6.8/7.4, N = 2, read-out: Papp × 10^−6 Avg), 17.7 ×10⁻⁶ cm/s; in data set [7] (pH 6.8, 0.04 mg/mL (58.4 μM), AP→BL pH 6.8/7.4, individual wells, read-out: Papp × 10^−6) it was 16.8 ×10⁻⁶ cm/s; in data set [7] (pH 7.4, 0.04 mg/mL (58.4 μM), AP→BL pH 7.4/7.4, N = 2, read-out: Papp × 10^−6 Avg), 13.5 ×10⁻⁶ cm/s; in data set [7] (pH 7.4, 0.04 mg/mL (58.4 μM), AP→BL pH 7.4/7.4, individual wells, read-out: Papp × 10^−6) it was 13.4 ×10⁻⁶ cm/s. Moreover, the Papp A→B at 120 min, 0.4 mg/mL in data set [5] (setting [8]) stood at 17.9 ×10⁻⁶ cm/s; in data set [5] (setting [9]) it was 19.3 ×10⁻⁶ cm/s; in data set [7] (pH 6.8, 0.4 mg/mL (584.1 μM) ± FITC-dextran 200 µg/mL, AP→BL pH 6.8/7.4, individual wells, read-out: Papp × 10^−6), 8.33 ×10⁻⁶ cm/s; in data set [7] (pH 6.8, 0.4 mg/mL (584.1 μM) ± FITC-dextran 200 µg/mL, AP→BL pH 6.8/7.4, read-out: Papp × 10^−6 Avg), 8.72 ×10⁻⁶ cm/s; in data set [7] (pH 7.4, 0.4 mg/mL (584.1 μM) ± FITC-dextran 200 µg/mL, AP→BL pH 7.4/7.4, individual wells, read-out: Papp × 10^−6) it was 9.9 ×10⁻⁶ cm/s; in data set [7] (pH 7.4, 0.4 mg/mL (584.1 μM) ± FITC-dextran 200 µg/mL, AP→BL pH 7.4/7.4, read-out: Papp × 10^−6 Avg), 10.5 ×10⁻⁶ cm/s. Besides, the Papp B→A at 120 min, 0.04 mg/mL turned out to be 17.7 ×10⁻⁶ cm/s in data set [5] (setting [10]); 16.3 ×10⁻⁶ cm/s in data set [5] (setting [11]); 11.9 ×10⁻⁶ cm/s in data set [7] (pH 7.4, 0.04 mg/mL (58.4 μM), BL→AP pH 7.4/7.4, N = 2, read-out: Papp × 10^−6 Avg); 11.2 ×10⁻⁶ cm/s in data set [7] (pH 7.4, 0.04 mg/mL (58.4 μM), BL→AP pH 7.4/7.4, individual wells, read-out: Papp × 10^−6). The Papp B→A at 120 min, 0.4 mg/mL in data set [5] (setting [10]) is 13.1 ×10⁻⁶ cm/s; in data set [5] (setting [11]), 13.8 ×10⁻⁶ cm/s; in data set [7] (pH 7.4, 0.4 mg/mL (584.1 μM) ± FITC-dextran 200 µg/mL, BL→AP pH 7.4/7.4, individual wells, read-out: Papp × 10^−6) it was 9.88 ×10⁻⁶ cm/s; in data set [7] (pH 7.4, 0.4 mg/mL (584.1 μM) ± FITC-dextran 200 µg/mL, BL→AP pH 7.4/7.4, read-out: Papp × 10^−6 Avg), 9.91 ×10⁻⁶ cm/s. In addition, the “Papp × 10^−6” value in data set [6] (0.04 mg/mL (58.4 μM), Human Caco-2, AP→BL pH 6.8/7.4, individual wells) is 13.13 × 10^−6 cm/s; in data set [6] (0.04 mg/mL (58.4 μM), Human Caco-2, BL→AP pH 7.4/7.4, individual wells), 19.03 × 10^−6 cm/s; in data set [6] (0.4 mg/mL (584.1 μM), Human Caco-2, AP→BL pH 6.8/7.4, individual wells), 16.45 × 10^−6 cm/s; in data set [6] (0.4 mg/mL (584.1 μM), Human Caco-2, BL→AP pH 7.4/7.4, individual wells), 12.37 × 10^−6 cm/s. Also, the Papp A→B in data set [1] (0.04 mg/mL (58.4 μM), AP→BL pH 6.8/7.4, individual wells) is 18.5 ×10⁻⁶ cm/s; in data set [1] (0.04 mg/mL (58.4 μM), AP→BL pH 7.4/7.4, individual wells) it was 13.5 ×10⁻⁶ cm/s; in data set [1] (0.4 mg/mL (584.1 μM) ± FITC-dextran 200 µg/mL, AP→BL pH 6.8/7.4, individual wells), 9.1 ×10⁻⁶ cm/s; in data set [1] (0.4 mg/mL (584.1 μM) ± FITC-dextran 200 µg/mL, AP→BL pH 7.4/7.4, individual wells) it was 11.2 ×10⁻⁶ cm/s. The Papp B→A in data set [1] (0.04 mg/mL (58.4 μM)) amounted to 12.7 ×10⁻⁶ cm/s; in data set [1] (0.4 mg/mL (584.1 μM) ± FITC-dextran 200 µg/mL), 9.94 ×10⁻⁶ cm/s.
With `CC(C)NCC(O)COc1cccc2ccccc12` (centres unmarked) [Propranolol], the Papp A→B at 120 min, 1 mg/mL in data set [5] (setting [8]) turned out to be 12.4 ×10⁻⁶ cm/s; in data set [5] (setting [9]) it was 12.1 ×10⁻⁶ cm/s; in data set [7] (pH 6.8, 1 mg/mL (3380 μM), AP→BL pH 6.8/7.4, N = 2, read-out: Papp × 10^−6 Avg), 11.6 ×10⁻⁶ cm/s; in data set [7] (pH 6.8, 1 mg/mL (3380 μM), AP→BL pH 6.8/7.4, individual wells, read-out: Papp × 10^−6), 12.2 ×10⁻⁶ cm/s; in data set [7] (pH 7.4, 1 mg/mL (3380 μM), AP→BL pH 7.4/7.4, N = 2, read-out: Papp × 10^−6 Avg), 12 ×10⁻⁶ cm/s; in data set [7] (pH 7.4, 1 mg/mL (3380 μM), AP→BL pH 7.4/7.4, individual wells, read-out: Papp × 10^−6), 12 ×10⁻⁶ cm/s. The Papp B→A at 120 min, 1 mg/mL in data set [5] (setting [10]) was 11.9 ×10⁻⁶ cm/s; in data set [5] (setting [11]), 11.4 ×10⁻⁶ cm/s; in data set [7] (pH 7.4, 1 mg/mL (3380 μM), BL→AP pH 7.4/7.4, N = 2, read-out: Papp × 10^−6 Avg), 11.5 ×10⁻⁶ cm/s; in data set [7] (pH 7.4, 1 mg/mL (3380 μM), BL→AP pH 7.4/7.4, individual wells, read-out: Papp × 10^−6) it was 10.9 ×10⁻⁶ cm/s. Also, the “Papp × 10^−6” value is on record as 12.75 × 10^−6 cm/s in data set [6] (1 mg/mL (3380 μM), Human Caco-2, AP→BL pH 6.8/7.4, individual wells) and 12.43 × 10^−6 cm/s in data set [6] (1 mg/mL (3380 μM), Human Caco-2, BL→AP pH 7.4/7.4, individual wells). For the same molecule, the Papp A→B was 11.1 ×10⁻⁶ cm/s in data set [1] (1 mg/mL (3380 μM), AP→BL pH 6.8/7.4, individual wells) and 12 ×10⁻⁶ cm/s in data set [1] (1 mg/mL (3380 μM), AP→BL pH 7.4/7.4, individual wells). Moreover, in data set [1] (1 mg/mL (3380 μM)), the Papp B→A was found to be 12 ×10⁻⁶ cm/s.

Values taken from article PMC10177590, “Canine Intestinal Organoids as a Novel In Vitro Model of Intestinal Drug Permeability: A Proof-of-Concept Study” (Cells, 2023).
